Inhibition data for one molecule are collected here from patent US20260060989A1, “Charged Ion Channel Blockers And Methods For Use” (Nocion Therapeutics, Inc., priority 2024, published 2026).

In general, inhibition refers to the share of the control response that was lost under treatment.

Assay [1] deals with T1, NaV1.7 (Homo sapiens, UniProt Q15858).
T1 construct: expressed in transfected cells; host or cells: Tetracycline-inducible cell line kept under hygromycin and blasticidin selection
Put plainly: Whole cell patch clamp, internal block of NaV1.7 current (compound in intracellular solution). The format is cell-based. The settings on record: test concentration 0.32 μM; text says intracellular inhibition (compound in internal solution), 5 Hz stimulation; read-out: NaV1.7 Extracellular Inhibition. The protocol:
(§1) NaV1.7 was expressed upon induction with tetracycline. Cells were cultured in DMEM containing 10% dialyzed Fetal Bovine Serum (VWR, Radnor, PA), 1% Glutamax (VWR, Radnor, PA), 1% Penicillin-Streptomycin (VWR, Radnor, PA), 100 mg/L Hygromycin (Thermo Fisher Scientific, Waltham, MA and 5 mg/L Blasticidin (Alfa Aesar, Haverhill, MA). Cells were grown and maintained at 37° C. in a humidified environment containing 10% CO2 in air. Cells were detached from the culture flask for passage and harvested using 0.05% Trypsin-EDTA (Thermo Fisher Scientific, Waltham, MA). To induce NaV1.7, cells were induced with tetracycline (0.1-1 μg/mL, IBI Scientific, Peosta, IA) the day before recording and plated onto 24-well plates. Cells were washed with DPBS (VWR, Radnor, PA), trypsinized and then triturated five times in 10 mL of growth media to break apart cell aggregates. […]
(§2) Once the recording was started, the voltage protocol was run at 30 second intervals for 5 minutes to get a stable baseline. […] Currents were recorded using PatchMaster software with Heka EPC10 (HEKA Electronics, Lambrecht, Germany). […]
(§3) The data was plotted using the Patchmaster software (HEKA Electronics, Lambrecht, Germany) and analyzed by plotting the minimum current during the voltage step to −20 mV (peak inward current) as a function of time. […]

Assay [2] deals with T1, NaV1.7. The experiment in a line: Whole cell patch clamp, external block of NaV1.7 current (compound in external solution). It counts as cell-based. The settings on record: test concentration 10 μM; compound applied in external solution for 5 minutes, 5 Hz stimulation; read-out: NaV1.7 Extracellular Inhibition. The protocol: as §1, §2, §3

T1 sequence (Q15858 whole entry): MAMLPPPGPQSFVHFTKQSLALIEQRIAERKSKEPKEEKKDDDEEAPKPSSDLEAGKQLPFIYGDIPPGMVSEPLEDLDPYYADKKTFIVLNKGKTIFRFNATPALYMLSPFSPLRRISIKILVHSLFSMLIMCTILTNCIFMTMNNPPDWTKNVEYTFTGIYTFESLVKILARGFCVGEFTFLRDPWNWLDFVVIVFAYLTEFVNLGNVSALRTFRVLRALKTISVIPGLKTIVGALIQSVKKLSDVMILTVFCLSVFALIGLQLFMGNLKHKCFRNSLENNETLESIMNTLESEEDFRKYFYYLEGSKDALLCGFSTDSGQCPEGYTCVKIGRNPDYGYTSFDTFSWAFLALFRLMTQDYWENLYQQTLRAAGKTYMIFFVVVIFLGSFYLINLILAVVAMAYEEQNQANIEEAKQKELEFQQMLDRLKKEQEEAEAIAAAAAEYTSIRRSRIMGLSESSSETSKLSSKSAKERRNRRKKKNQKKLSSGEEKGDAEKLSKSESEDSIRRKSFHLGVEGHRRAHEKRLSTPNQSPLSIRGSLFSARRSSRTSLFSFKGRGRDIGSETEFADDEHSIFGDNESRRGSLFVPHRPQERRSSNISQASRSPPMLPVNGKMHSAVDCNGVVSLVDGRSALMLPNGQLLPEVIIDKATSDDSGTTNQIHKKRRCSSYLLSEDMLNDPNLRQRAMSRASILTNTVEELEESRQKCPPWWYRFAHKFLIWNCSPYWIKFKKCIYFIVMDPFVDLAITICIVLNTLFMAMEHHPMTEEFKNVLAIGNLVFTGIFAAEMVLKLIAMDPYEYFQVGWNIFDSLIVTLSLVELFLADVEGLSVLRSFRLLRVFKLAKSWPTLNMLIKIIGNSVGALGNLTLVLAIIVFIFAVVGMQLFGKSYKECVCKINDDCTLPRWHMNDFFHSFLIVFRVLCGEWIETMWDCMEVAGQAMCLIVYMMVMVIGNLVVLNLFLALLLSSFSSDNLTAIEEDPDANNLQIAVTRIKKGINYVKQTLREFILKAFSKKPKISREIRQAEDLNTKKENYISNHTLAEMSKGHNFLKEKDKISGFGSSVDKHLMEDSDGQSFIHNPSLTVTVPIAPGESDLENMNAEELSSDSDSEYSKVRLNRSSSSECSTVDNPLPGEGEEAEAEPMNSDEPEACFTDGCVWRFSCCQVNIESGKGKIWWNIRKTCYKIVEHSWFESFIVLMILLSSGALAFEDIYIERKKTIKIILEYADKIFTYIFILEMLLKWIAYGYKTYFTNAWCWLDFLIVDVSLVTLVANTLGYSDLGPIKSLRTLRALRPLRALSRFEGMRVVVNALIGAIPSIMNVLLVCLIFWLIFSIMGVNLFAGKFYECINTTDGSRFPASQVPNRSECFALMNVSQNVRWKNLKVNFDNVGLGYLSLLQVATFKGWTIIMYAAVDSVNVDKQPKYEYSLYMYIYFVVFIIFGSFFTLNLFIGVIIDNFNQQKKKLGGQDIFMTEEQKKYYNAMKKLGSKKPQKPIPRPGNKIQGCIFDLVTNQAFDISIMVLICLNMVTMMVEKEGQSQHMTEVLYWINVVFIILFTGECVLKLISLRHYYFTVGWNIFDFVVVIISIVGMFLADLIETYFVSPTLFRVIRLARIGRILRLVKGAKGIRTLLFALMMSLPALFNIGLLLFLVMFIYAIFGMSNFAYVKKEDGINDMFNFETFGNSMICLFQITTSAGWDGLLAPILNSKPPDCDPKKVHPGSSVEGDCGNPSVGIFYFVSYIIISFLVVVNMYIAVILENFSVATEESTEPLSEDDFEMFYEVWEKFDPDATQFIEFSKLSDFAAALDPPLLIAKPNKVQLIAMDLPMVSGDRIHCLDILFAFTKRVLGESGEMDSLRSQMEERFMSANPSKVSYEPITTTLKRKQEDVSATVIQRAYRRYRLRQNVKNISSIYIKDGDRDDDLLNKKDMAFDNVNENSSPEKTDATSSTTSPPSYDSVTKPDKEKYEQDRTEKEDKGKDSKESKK

For the molecule `Cc1cccc(C)c1NC(=O)C[N+]1(CCOC(=O)c2ccccc2Cl)CCCCCC1` [Compound 1, 1-(2-((2-chlorobenzoyl)oxy)ethyl)-1-(2-((2,6-dimethylphenyl)amino)-2-oxoethyl)azepan-1-ium bromide], the inhibition at 0.32 µM at NaV1.7 [1] was more than 70%. Moreover, the inhibition at 10 µM at NaV1.7 [2] lay in the range of 40 to 70%.
